In brackets after ≈: the same amount, converted by molar mass. Activity calls are given as the source filed them. The calls are words filed in the database; no cut-off is given here.
Assays:
[1] = Metabolic stability in mouse liver microsomes assessed as clearance; assay type: ADME, Microsome
[2] = Metabolic stability in mouse liver microsomes assessed as half life; assay type: ADME, Microsome
Cryptococcus neoformans [3] = assay: microbe, parasite or virus in culture; assay type: functional, organism-based; conditions: H99, 72 h
Description: Anti-cryptococcal activity against Cryptococcus neoformans H99 assessed as inhibition of fungal growth incubated for 72 hrs by microdilution method

Cryptococcus neoformans [4] = assay: Inhibition of Cryptococcus neoformans H99 delta5,6-desaturase assessed as upregulation of ERG2 gene expression at 2 ug/ml incubated for 24 hrs by RT-PCR analysis; conditions: dose 2.0 µg/ml
Pichia kudriavzevii = assay: microbe, parasite or virus in culture; assay type: functional, organism-based; conditions: Pichia kudriavzevii, 10153, 48 h
Description: Antifungal activity against Candida krusei 10153 assessed as inhibition of fungal growth incubated for 48 hrs by microdilution method

[Candida] auris [5] = microbe, parasite or virus in culture; assay type: functional, organism-based; conditions: Candidozyma auris, 0030, 48 h
Description: Antifungal activity against Candida auris 0030 assessed as inhibition of fungal growth incubated for 48 hrs by microdilution method

Candida albicans [6] = assay: microbe, parasite or virus in culture; assay type: functional, organism-based; conditions: SC5314, 48 h
Description: Antifungal activity against Candida albicans SC5314 assessed as inhibition of fungal growth incubated for 48 hrs by microdilution method

Aspergillus fumigatus [7] = assay: microbe, parasite or virus in culture; assay type: functional, organism-based; conditions: 023-2, 48 h
Description: Antifungal activity against Aspergillus fumigatus 023-2 assessed as inhibition of fungal growth incubated for 48 hrs by microdilution method

Cryptococcus neoformans [8] = assay: Inhibition of Cryptococcus neoformans H99 delta5,6-desaturase assessed as upregulation of ERG3 gene expression at 2 ug/ml incubated for 24 hrs by RT-PCR analysis; conditions: dose 2.0 µg/ml
Cryptococcus neoformans [9] = assay: Inhibition of Cryptococcus neoformans H99 delta5,6-desaturase assessed as upregulation of ERG4 gene expression at 2 ug/ml incubated for 24 hrs by RT-PCR analysis; conditions: dose 2.0 µg/ml
Aspergillus fumigatus [10] = assay: microbe, parasite or virus in culture; assay type: functional, organism-based; conditions: Aspergillus fumigatus, 7544, 48 h
Description: Antifungal activity against Aspergillus fumigatus 7544 assessed as inhibition of fungal growth incubated for 48 hrs by microdilution method

[Candida] auris [11] = Antifungal activity against Candida auris 15448 assessed as inhibition of fungal growth incubated for 48 hrs by microdilution method; assay type: functional, organism-based; conditions: Candidozyma auris, 15448, 48 h
Cryptococcus neoformans [12] = assay: Inhibition of Cryptococcus neoformans H99 delta5,6-desaturase assessed as upregulation of ERG11 gene expression at 2 ug/ml incubated for 24 hrs by RT-PCR analysis; conditions: dose 2.0 µg/ml
Cryptococcus neoformans [13] = assay: Inhibition of biofilm formation in Cryptococcus neoformans H99 at 8 ug/ml incubated for 24 hrs by XTT reduction assay; assay type: functional
Candida albicans [14] = assay: microbe, parasite or virus in culture; assay type: functional, organism-based; conditions: Candida albicans, 904, 48 h
Description: Antifungal activity against Candida albicans 904 assessed as inhibition of fungal growth incubated for 48 hrs by microdilution method

Nakaseomyces glabratus [15] = assay: microbe, parasite or virus in culture; assay type: functional, organism-based; conditions: Nakaseomyces glabratus, 9025, 48 h
Description: Antifungal activity against Candida glabrata 9025 assessed as inhibition of fungal growth incubated for 48 hrs by microdilution method

Cryptococcus neoformans [16] = assay: Inhibition of Cryptococcus neoformans H99 delta5,6-desaturase assessed as upregulation of ERG5 gene expression at 2 ug/ml incubated for 24 hrs by RT-PCR analysis; conditions: dose 2.0 µg/ml
Candida albicans [17] = assay: microbe, parasite or virus in culture; assay type: functional, organism-based; conditions: Candida albicans, 0304103, 48 h
Description: Antifungal activity against Candida albicans 0304103 assessed as inhibition of fungal growth incubated for 48 hrs by microdilution method

[18] = microbe, parasite or virus in culture; assay type: functional; conditions: Cryptococcus; time 72 hrs
Description: Anti-cryptococcal activity against Cryptococcus assessed as inhibition of fungal growth incubated for 72 hrs by microdilution method

Cryptococcus neoformans [19] = assay: Anti-cryptococcal activity against Cryptococcus neoformans H99 assessed as inhibition of fungal growth at 1 to 8 ug/ml incubated upto 72 hrs by time-growth curve assay; assay type: functional, organism-based; conditions: dose 1-8 µg/ml
Cryptococcus neoformans [20] = assay: Inhibition of Cryptococcus neoformans H99 delta5,6-desaturase assessed as upregulation of ERG24 gene expression at 2 ug/ml incubated for 24 hrs by RT-PCR analysis; conditions: dose 2.0 µg/ml
Nakaseomyces glabratus [21] = assay: microbe, parasite or virus in culture; assay type: functional, organism-based; conditions: Nakaseomyces glabratus, 9073, 48 h
Description: Antifungal activity against Candida glabrata 9073 assessed as inhibition of fungal growth incubated for 48 hrs by microdilution method

Cryptococcus neoformans [22] = assay: Inhibition of Cryptococcus neoformans H99 delta5,6-desaturase assessed as upregulation of ERG1 gene expression at 2 ug/ml incubated for 24 hrs by RT-PCR analysis; conditions: dose 2.0 µg/ml
Candida tropicalis = assay: microbe, parasite or virus in culture; assay type: functional, organism-based; conditions: Candida tropicalis, 10186, 48 h
Description: Antifungal activity against Candida tropicalis 10186 assessed as inhibition of fungal growth incubated for 48 hrs by microdilution method

[Candida] auris [23] = microbe, parasite or virus in culture; assay type: functional, organism-based; conditions: Candidozyma auris, 0029, 48 h
Description: Antifungal activity against Candida auris 0029 assessed as inhibition of fungal growth incubated for 48 hrs by microdilution method

[24] = […] in ICR mouse model of Cryptococcal meningitis infected with Cryptococcus neoformans H99 assessed as median survival time at 15 mg/kg, IG administered daily (reference value: 11 day); assay type: organism-based; conditions: in vivo, po, 264 h
Cryptococcus neoformans [25] = assay: Inhibition of biofilm formation in Cryptococcus neoformans H99 at 0.5 to 8 ug/ml incubated for 24 hrs by XTT reduction assay; assay type: functional, organism-based; conditions: dose 0.5-8 µg/ml, DDE = dose-dependent effect
Cryptococcus neoformans [26] = assay: Anti-cryptococcal activity against Cryptococcus neoformans H99 assessed as inhibition of fungal growth at 4 to 8 ug/ml measured for 3 to 48 hrs by time-growth curve assay; assay type: functional, organism-based; conditions: dose 4-8 µg/ml, time 3-48 hrs
Cryptococcus neoformans [27] = assay: Inhibition of biofilm formation in Cryptococcus neoformans H99 at 2 ug/ml incubated for 24 hrs by XTT reduction assay; assay type: functional

With `O=C(c1ccc(F)cc1)C1CCN(CCn2c(=O)[nH]c3ccccc3c2=O)CC1` [KETANSERIN] the CLH [1] was 271 µL/min/mg and the half-life [2] was 20.1 min.
With `Nc1nc(=O)[nH]cc1F` [FLUCYTOSINE] the IC50 (Cryptococcus neoformans [3]) was 2 µg/mL (≈ 15.5 µM).
`CN(C)C1CCC(c2ccc(Cl)c(Cl)c2)c2sccc21.Cl` (stereo unspecified) showed an IC50 (Cryptococcus neoformans [3]) of 32 µg/mL.
With `OC(Cn1cncn1)(Cn1cncn1)c1ccc(F)cc1F` [FLUCONAZOLE] the Activity (Cryptococcus neoformans [4]) was “Active”, the IC50 (Pichia kudriavzevii) was 64 µg/mL (≈ 209 µM) and the IC50 ([Candida] auris [5]) was greater than 64 µg/mL. For the same compound, the IC50 (Candida albicans [6]) was 0.25 µg/mL (≈ 0.816 µM), the IC50 (Aspergillus fumigatus [7]) was greater than 64 µg/mL and the Activity (Cryptococcus neoformans [8]) was “Active”. For the same compound, the Activity (Cryptococcus neoformans [9]) was “Active”, the IC50 (Aspergillus fumigatus [10]) was greater than 64 µg/mL and the IC50 ([Candida] auris [11]) was 4 µg/mL (≈ 13.1 µM). For the same compound, the Activity (Cryptococcus neoformans [12]) was “Active”, the inhibition at 8 µg/mL (Cryptococcus neoformans [13]) was 50% and the IC50 (Cryptococcus neoformans [3]) was 2 µg/mL (≈ 6.53 µM). The IC50 (Candida albicans [14]) was greater than 64 µg/mL, the IC50 (Nakaseomyces glabratus [15]) was 16 µg/mL (≈ 52.2 µM) and the Activity (Cryptococcus neoformans [16]) was “Active”. The IC50 (Candida albicans [17]) was greater than 64 µg/mL, the MIC50 [18] was 1.14 µg/mL (≈ 3.72 µM) and the Activity (Cryptococcus neoformans [19]) was “Active”. For the same compound, the Activity (Cryptococcus neoformans [20]) was “Active”, the IC50 (Nakaseomyces glabratus [21]) was 64 µg/mL (≈ 209 µM) and the Activity (Cryptococcus neoformans [22]) was “Active”. It also gave an IC50 (Candida tropicalis) greater than 64 µg/mL and an IC50 ([Candida] auris [23]) greater than 64 µg/mL.
Compound `Cl.Clc1ccc(C2CCC(NC3CCOCC3)c3ccsc32)cc1Cl` (stereo unspecified) has an IC50 (Cryptococcus neoformans [3]) of 4 µg/mL.
Work on `Cl.Clc1ccc(C2CCC(NC3CCCC3)c3ccsc32)cc1Cl` (stereo unspecified) yielded an IC50 (Cryptococcus neoformans [3]) of 8 µg/mL.
For `CN[C@H]1CC[C@@H](c2ccc(Cl)c(Cl)c2)c2ccccc21` [SERTRALINE], the MST [24] was 11.5 days, the CLH [1] was 132 µL/min/mg and the half-life [2] was 41.5 min.
For `Cl.Clc1ccc(C2CCC(NCc3ccccc3)c3ccsc32)cc1Cl` (stereo unspecified), the IC50 (Cryptococcus neoformans [3]) was 32 µg/mL.
`Cl.Clc1ccc(C2CCC(NCC3CCCCC3)c3ccsc32)cc1Cl` (stereo unspecified) gave an IC50 (Cryptococcus neoformans [3]) of 2 µg/mL.
Work on `Cl.O=C(CNC1CCC(c2ccc(Cl)c(Cl)c2)c2sccc21)N1CCCCC1` (stereo unspecified) yielded an IC50 (Cryptococcus neoformans [3]) of 8 µg/mL.
`CNC1CCC(c2ccc(Cl)c(Cl)c2)c2sccc21.Cl` (stereo unspecified) gave an IC50 (Cryptococcus neoformans [3]) of 8 µg/mL.
In the case of `Cl.Clc1ccc(C2CCC(NCCC3CCCCC3)c3ccsc32)cc1Cl` (stereo unspecified), the IC50 (Cryptococcus neoformans [3]) is reported as 1 µg/mL, the inhibition (Cryptococcus neoformans [25]) is reported as “Dde” and the Activity (Cryptococcus neoformans [26]) is reported as “Active”. It also gave an inhibition at 2 µg/mL (Cryptococcus neoformans [27]) of 50%.
In the case of `CC(C)NC1CCC(c2ccc(Cl)c(Cl)c2)c2sccc21.Cl` (stereo unspecified), the IC50 (Cryptococcus neoformans [3]) is reported as 16 µg/mL.
